“And” between values parts separate entries of the source, which are not always exact repeats. Equal values may be shown once. Where a name gives a salt, the structure may show the parent alone. Read-outs that look alike come from different tables or passages of the source.
What was measured:
[1] = molecular target: T1, wild type human RORγt ligand binding domain (RORyt LBD) (Homo sapiens, UniProt P51449); experiment: RORγt ThermoFluor assay (thermal shift, binding affinity KD)
T1 construct: His-tag (N); TurboTEV protease cleavage site (ENLYFQG) (N); made in house; host or cells: E. coli (pHIS1, modified pET vector)
T1 sequence (P51449 258-518): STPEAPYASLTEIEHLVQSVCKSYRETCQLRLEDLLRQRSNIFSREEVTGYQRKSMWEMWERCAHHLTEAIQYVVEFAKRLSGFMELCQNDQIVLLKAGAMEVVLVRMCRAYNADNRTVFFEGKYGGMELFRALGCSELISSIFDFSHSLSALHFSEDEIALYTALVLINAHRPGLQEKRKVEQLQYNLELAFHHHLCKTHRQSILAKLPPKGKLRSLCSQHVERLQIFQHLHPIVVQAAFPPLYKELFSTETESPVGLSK

[2] = molecular target: T2, wild type human RORγt LBD (Homo sapiens, UniProt P51449); experiment: RORγt (LBD) Reporter Assay (GAL4-luciferase, HEK293T cells); type: cell-based; conditions: for inhibition at 6 µM: HEK-293T, read-out: RORγt (LBD) Reporter Assay, % inhibition @ 6 µM, 6 µM compound concentration; for RORγt (LBD) Reporter Assay, % inhibition @ 6 µM: 6 µM compound concentration
T2 construct: expressed in transfected cells; host or cells: HEK293T
T2 sequence (P51449 258-518): T1 sequence (P51449 258-518)

[3] = HEK293T cells, value after the comma with ∼, > or < could not be included in the average

Row | Compound | Kd [1] | IC50 [2, 3] | inhibition at 6 µM [2] | RORγt (LBD) Reporter Assay, % inhibition @ 6 µM ([2]; HEK293T cells) | IC50 ([2]; HEK293T cells) | RORγt (LBD) Reporter Assay, % inhibition @ 6 µM [2] | inhibition at 6 µM ([2]; HEK293T cells)
1 | Cn1cncc1C(O)(c1ccc(C(F)(F)F)nc1)c1ccc2nc(C(F)(F)F)c(Cc3ccccc3)c(C#N)c2c1 (stereo not drawn) [Example 108a, 3-Benzyl-6-(hydroxy(1-methyl-1H-imidazol-5-yl)(6-(trifluoromethyl)pyridin-3-yl)methyl)-2-(trifluoromethyl)quinoline-4-carbonitrile•TFA] | 4.4 nM | 30 nM | 90% | – | – | – | –
2 | COc1nc2ccc(C(O)(c3cnnn3C)c3cnc(C)n3C)cc2c(C#N)c1Cc1ccc(F)cc1 (single isomer, unassigned) [Example 66b, 6-((1,2-Dimethyl-1H-imidazol-5-yl)(hydroxy)(1-methyl-1H-1,2,3-triazol-5-yl)methyl)-3-(4-fluorobenzyl)-2-methoxyquinoline4-carbonitrile] | 1.1 nM | 3.1 nM | 82% | – | – | – | –
3 | Cn1cncc1C(O)(c1ccc(C#N)cc1)c1ccc2nc(C(F)(F)F)c(Cc3ccccc3)c(C#N)c2c1 (stereo not drawn) [Example 104, 3-Benzyl-6-((4-cyanophenyl)(hydroxy)(1-methyl-1H-imidazol-5-yl)methyl)-2-(trifluoromethyl)quinoline-4-carbonitrile•TFA] | 6.3 nM | 19 nM | 82% | – | – | – | –
4 | Cc1ccc(C(O)(c2ccc3nc(N4CCC4)c(Cc4ccc(-n5cccn5)cc4)c(Cl)c3c2)c2cnnn2C)c(C)n1 (single isomer, unassigned) [Example 141b, {2-Azetidin-1-yl-4-chloro-3-[4-(1H-pyrazol-1-yl)benzyl]quinolin-6-yl}(2,6-dimethylpyridin-3-yl)(1-methyl-1H-1,2,3-triazol-5-yl)methanol] | 17000 nM | – | – | 20% | > 6000 nM | – | –
5 | Cc1ccc(C(O)(c2ccc3nc(N4CCC4)c(Cc4ccc(C(F)(F)F)cc4)c(Cl)c3c2)c2cnnn2C)c(C)n1 (single isomer, unassigned) [Example 140c, {2-Azetidin-1-yl-4-chloro-3-[4-(trifluoromethyl)benzyl]quinolin-6-yl}(2,6-dimethylpyridin-3-yl)(1-methyl-1H-1,2,3-triazol-5-yl)methanol] | 0.15 nM | – | – | 99% | 0.66 nM and ~1 nM | – | –
6 | CCc1nc2ccc(C(O)(c3ccc(C)nc3C)c3cnnn3C)cc2c(Cl)c1Cc1ccc(C(F)(F)F)cc1 (single isomer, unassigned) [Example 23c, (4-Chloro-2-ethyl-3-(4-(trifluoromethyl)benzyl)quinolin-6-yl)(2,6-dimethylpyridin-3-yl)(1-methyl-1H-1,2,3-triazol-5-yl)methanol] | 0.03 nM | 46 nM | – | – | – | 97% | –
7 | Cc1cc(C(O)(c2ccnc(C(F)(F)F)c2)c2cncn2C)cc2c(C#N)c(Cc3ccc(-n4cccn4)cc3)c(C#N)nc12 (single isomer, unassigned) [Example 83b, 3-(4-(1H-Pyrazol-1-yl)benzyl)-6-(hydroxy(1-methyl-1H-imidazol-5-yl)(2-(trifluoromethyl)pyridin-4-yl)methyl)-8-methylquinoline-2,4-dicarbonitrile] | 0.67 nM | 13 nM | 104% | – | – | – | –
8 | COc1nc2ccc(C(O)(c3ncccn3)c3cncn3C)cc2c(Cl)c1Cc1ccc(-n2cccn2)cc1 (single isomer, unassigned) [Example 131b, {4-Chloro-2-methoxy-3-[4-(1H-pyrazol-1-yl)benzyl]quinolin-6-yl}(1-methyl-1H-imidazol-5-yl)pyrimidin-2-ylmethanol] | 9000 nM | – | – | 59% | ~6000 nM | – | –
9 | COc1nc2ccc(C(O)(c3cnnn3C)c3cnc(C)n3C)cc2c(Cl)c1Cc1ccc(C(F)(F)F)nc1 (single isomer, unassigned) [Example 43b, (4-Chloro-2-methoxy-3-((6-(trifluoromethyl)pyridin-3-yl)methyl)quinolin-6-yl)(1,2-dimethyl-1H-imidazol-5-yl)(1-methyl-1H-1,2,3-triazol-5-yl)methanol] | 0.49 nM | 10 nM | 98% | – | – | – | –
10 | Cc1ccc(C(O)(c2ccc3nc(N4CCC4)c(Cc4ccc(C(F)(F)F)cc4)c(Cl)c3c2)c2cnnn2C)c(C)n1 (single isomer, unassigned) [Example 140b, {2-Azetidin-1-yl-4-chloro-3-[4-(trifluoromethyl)benzyl]quinolin-6-yl}(2,6-dimethylpyridin-3-yl)(1-methyl-1H-1,2,3-triazol-5-yl)methanol] | 130 nM | – | – | – | ~100 nM | – | 101%
11 | COc1nc2ccc(C(O)(c3ccc(F)cc3)c3cccnc3)cc2c(Cl)c1Cc1ccc(-n2cccn2)cc1 (stereo not drawn) [Example 158a, (3-(4-(1H-Pyrazol-1-yl)benzyl)-4-chloro-2-methoxyquinolin-6-yl)(4-fluorophenyl)(pyridin-3-yl)methanol] | 21 nM | – | – | – | 57 nM | – | 97%
12 | COc1ccc(C(O)(c2cccnc2)c2ccc3nc(OC)c(Cc4ccc(-n5cccn5)cc4)c(Cl)c3c2)cc1OC (single isomer, unassigned) [Example 159b, (3-(4-(1H-Pyrazol-1-yl)benzyl)-4-chloro-2-methoxyquinolin-6-yl)(3,4-dimethoxyphenyl)(pyridin-3-yl)methanol] | 510 nM | – | – | – | 370 nM | – | 107%
13 | COc1nc2ccc(C(O)(c3cnnn3C)C3CN(C(=O)OC(C)(C)C)C3)cc2c(Cl)c1Cc1ccc(C(F)(F)F)cc1 (stereo not drawn) [Example 123, tert-Butyl-3-((4-chloro-2-methoxy-3-(4-(trifluoromethyl)benzyl)quinolin-6-yl)(hydroxy)(1-methyl-1H-1,2,3-triazol-5-yl)methyl)azetidine-1-carboxylate] | 5.2 nM | – | – | – | 71 nM | – | 101%
14 | Cn1cncc1C(O)(c1ccc(C(F)(F)F)nc1)c1ccc2nc(N3CCOCC3)c(Cc3ccc(-n4cccn4)cc3)c(Cl)c2c1 (single isomer, unassigned) [Example 146b, {4-Chloro-2-morpholin-4-yl-3-[4-(1H-pyrazol-1-yl)benzyl]quinolin-6-yl}(1-methyl-1H-imidazol-5-yl)[6-(trifluoromethyl)pyridin-3-yl]methanol] | 84 nM | – | – | – | 210 nM | – | 103%
15 | COc1nc2ccc(C(O)(c3sc(C)nc3C)c3cnnn3C)cc2c(Cl)c1Cc1ccc(-n2cccn2)cc1 (single isomer, unassigned) [Example 21b, (3-(4-(1H-Pyrazol-1-yl)benzyl)-4-chloro-2-methoxyquinolin-6-yl)(2,4-dimethylthiazol-5-yl)(1-methyl-1H-1,2,3-triazol-5-yl)methanol] | 22 nM | 130 nM | 99% | – | – | – | –
16 | COc1nc2ccc(C(O)(c3ccc(C)nc3C)c3cnnn3C)cc2c(Cl)c1Cc1ccc(-n2cccn2)cc1 (stereo not drawn) [Example 17a, (3-(4-(1H-Pyrazol-1-yl)benzyl)4-chloro-2-methoxyquinolin-6-yl)(2,6-dimethylpyridin-3-yl)(1-methyl-1H-1,2,3-triazol-5-yl)methanol] | 0.91 nM | 10 nM | 99% | – | – | – | –
17 | Cc1cc(C(O)(c2ccc(C(F)(F)F)nc2)c2cncn2C)cc2c(Cl)c(Cc3ccc(-n4cccn4)cc3)c(N3CCC3)nc12 (single isomer, unassigned) [Example 137c, {2-Azetidin-1-yl-4-chloro-8-methyl-3-[4-(1H-pyrazol-1-yl)benzyl]quinolin-6-yl}(1-methyl-1H-imidazol-5-yl)[6-(trifluoromethyl)pyridin-3-yl]methanol] | 4.5 nM | – | – | 94% | 140 nM | – | –
18 | Cc1ccc(C(O)(c2ccc3nc(Cl)c(Cc4ccc(C(F)(F)F)cc4)c(NC4CC4)c3c2)c2cnnn2C)c(C)n1 (single isomer, unassigned) [Example 144c, {2-Chloro-4-(cyclopropylamino)-3-[4-(trifluoromethyl)benzyl]quinolin-6-yl}(2,6-dimethylpyridin-3-yl)(1-methyl-1H-1,2,3-triazol-5-yl)methanol] | 2.5 nM | – | – | 99% | 34 nM | – | –
19 | COc1nc2ccc(C(O)(c3sc(C)nc3C)c3cnnn3C)cc2c(Cl)c1Cc1ccc(-n2cccn2)cc1 (stereo not drawn) [Example 21a, (3-(4-(1H-Pyrazol-1-yl)benzyl)4-chloro-2-methoxyquinolin-6-yl)(2,4-dimethylthiazol-5-yl)(1-methyl-1H-1,2,3-triazol-5-yl)methanol] | 0.31 nM | 6 nM | 101% | – | – | – | –
20 | COc1nc2ccc(C(O)(c3ccc(C)nc3C)C3CN(C(C)=O)C3)cc2c(Cl)c1Cc1ccc(C(F)(F)F)cc1 (single isomer, unassigned) [Example 87b, 1-(3-((4-Chloro-2-methoxy-3-(4-(trifluoromethyl)benzyl)quinolin-6-yl)(2,6-dimethylpyridin-3-yl)(hydroxy)methyl)azetidin-1-yl)ethanone] | 0.73 nM | 13 nM | 100% | – | – | – | –
21 | Cn1cncc1C(O)(c1ccc(C(F)(F)F)nc1)c1ccc2nc(Cl)c(Cc3ccccc3)c(Cl)c2c1 (stereo not drawn) [Example 109, (3-Benzyl-2,4-dichloroquinolin-6-yl)(1-methyl-1H-imidazol-5-yl)(6-(trifluoromethyl)pyridin-3-yl)methanol•TFA] | 14 nM | ~4000 nM | 80% | – | – | – | –

Reference: EP3057951B1, “METHYLENE LINKED QUINOLINYL MODULATORS OF ROR-GAMMA-T” (Janssen Pharmaceutica NV, priority 2013, dated 2015)
